Experimental data: patent US6362166B1, “Antipicornaviral compounds and methods for their use and preparation” (Agouron Pharmaceuticals, Inc., priority 1996, dated 2002)
Where two headings read alike, the source gives them in different places.

Columns and labels:
[1] = molecular target: T1, Recombinant Rhinovirus 3C protease (RVP) serotype-14 (Human rhinovirus 14, UniProt P03303); experiment: Inhibition of Rhinovirus Protease (fluorescence resonance energy transfer assay), serotype 14; format: biochemical, human rhinovirus (HRV); conditions: RVP serotype-14; for kobs/I: progress curves in enzyme start experiments
T1 construct: Recombinant Rhinovirus 3C proteases from serotypes 14, 16, 2 or 89; made in house
T1 sequence (P03303 1538-1719): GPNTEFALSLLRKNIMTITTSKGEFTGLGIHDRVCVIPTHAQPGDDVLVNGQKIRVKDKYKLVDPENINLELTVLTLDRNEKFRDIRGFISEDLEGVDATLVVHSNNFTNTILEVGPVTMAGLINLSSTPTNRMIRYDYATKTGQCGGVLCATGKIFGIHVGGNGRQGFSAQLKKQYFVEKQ
Procedure: Stock solution (50 mM, in DMSO) of various compounds were prepared; dilutions were in the same solvent. […] Assays contained 2% DMSO, 50 mM tris pH 7.6, 1 mM EDTA, a compound at the indicated concentrations, approximately 1 μM substrate, and 50-100 nM protease. […] The kobs/I values were obtained from reactions initiated by addition of enzyme rather than substrate. RVP activity is measured in the fluorescence resonance energy transfer assay. […] In the uncleaved peptide, the EDANS fluorescence was quenched by the proximal DABCYL moeity. When the peptide was cleaved, the quenching was relieved, and activity was measured as an increase in fluorescence signal.
In the above table, all data is RVP serotype-14 unless otherwise noted in parentheses. All strains of human rhinovirus (HRV) were purchased from American Type Culture Collection (ATCC), except for serotype 14, which was produced from the infectious cDNA clone constructed and supplied to us by Dr. Roland Rueckert at the Institute for Molecular Virology, University of Wisconsin, Madison, Wisc. […] The data in the column designated kobs/I was measured from progress curves in enzyme start experiments.

HRV-14 = experiment: Antirhinoviral HI-HeLa Cell Culture Assay (Cell Protection Assay, XTT dye reduction); format: cell-based, human rhinovirus (HRV) serotype-14; conditions: HI-HeLa cells infected with HRV-14, m.o.i. 0.13; two days; XTT; read-out: EC50
Procedure: In the Cell Protection Assay, the ability of compounds to protect cells against HRV infection was measured by the XTT dye reduction method. This method is described in Weislow, O. S., R. Kiser, D. L. Fine, J. Bader, R. H. Shoemaker, and M. R. Boyd, J. Natl. Cancer Inst. 1989, 81, 577-586, which is incorporated herein by reference.
(§1) HI-HeLa cells were infected with HRV-14 at a multiplicity of infection (m.o.i.) of 0.13 (virus particles/cell) or mock-infected with medium only. Infected or mock-infected cells were resuspended at 8×10^5 cells per mL and incubated with appropriate concentration of compounds of formulas I and II. Two days later, XTT/PMS was added to test plates and the amount of formazan produced was quantified spectrophotometrically at 450/650 nm. […] The therapeutic index (TI) was calculated by dividing the CC50 by the EC50.
(§2) All strains of human rhinovirus (HRV) for use in this assay were purchased from American Type Culture Collection (ATCC), except for HRV serotype-14, which was produced from the infectious cDNA clone, constructed and supplied to us by Dr. Roland Rueckert at the Institue for Molecular Virology, University of Wisconsin, Madison, Wisc. HRV stocks were propagated, and antiviral assays were perforemd in HI-HeLa cells (ATCC). Cells were grwon in Minimal Essential Medium, available from Life Technologies, with 10% fetal bovine serum.
The compounds were tested against control compounds WIN 51711, WIN 52084, and WIN 54954, all obtained from Sterling-Winthrop Pharmaceuticals, and control compound Pirodavir, obtained from Janssen Pharmaceuticals.

HI-HeLa cells = experiment: Cytotoxicity in mock-infected HI-HeLa cells (antirhinoviral assay, XTT); format: cell-based
Procedure: as §1, §2

[2] = mock-infected HI-HeLa cells, two days, XTT, read-out: CC50

CCOC(=O)/C=C/[C@H](CCC(N)=O)NC(=O)[C@H](Cc1ccccc1)NC(=O)[C@H](CC(C)C)NC(=O)C(C)C [Compound 117]
kobs/I [1]: 18,760 M-1 sec-1 | EC50 (HRV-14): 1 µM | CC50 (HI-HeLa cells): > 320 µM

CCOC(=O)/C=C/[C@H](COC(=O)NC(=O)CCl)NC(=O)[C@H](Cc1ccccc1)NC(=O)[C@H](CC(C)C)NC(=O)OCc1ccccc1 [Compound 122]
kobs/I [1]: 1,252 M-1 sec-1 | EC50 (HRV-14): 1.78 µM | CC50 (HI-HeLa cells): 10 µM

CC(C)C[C@H](NC(=O)OCc1ccccc1)C(=O)N[C@@H](Cc1ccccc1)C(=O)N[C@H](/C=C/[N+](=O)[O-])CCC(N)=O [Compound 125]
kobs/I [1]: >500,000 M-1 sec-1 | EC50 (HRV-14): > 100 µM | CC50 (HI-HeLa cells): 100 µM

CCOC(=O)/C=C/[C@H](CCC(N)=O)NC(=O)[C@H](Cc1ccccc1)NC(=O)[C@H](CC(C)C)NC(=O)c1ccc(C(=O)NC)cc1 [Compound 129]
kobs/I [1]: 230,000 M-1 sec-1 | EC50 (HRV-14): > 320 µM | CC50 (HI-HeLa cells): > 320 µM

CCOC(=O)/C=C/[C@H](CCC(N)=O)NC(=O)[C@H](Cc1ccc(C(N)=O)cc1)NC(=O)[C@H](CC(C)C)NC(=O)OCc1ccccc1 [Compound 133]
kobs/I [1]: 9,600 M-1 sec-1 | EC50 (HRV-14): > 177 µM | CC50 (HI-HeLa cells): 177 µM

CCOC(=O)/C=C/[C@H](CCC(N)=O)NC(=O)[C@@H](NC(=O)[C@H](CC(C)C)NC(=O)OCc1ccccc1)C(C)O (stereo partly shown) [Compound 134]
kobs/I [1]: 1,769 M-1 sec-1 | EC50 (HRV-14): 56.2 µM | CC50 (HI-HeLa cells): > 320 µM

CCOC(=O)/C=C/[C@H](CCC(N)=O)NC(=O)[C@H](Cc1ccc(OCC)cc1)NC(=O)[C@H](CC(C)C)NC(=O)OCc1ccccc1 [Compound 136]
kobs/I [1]: 4,210 M-1 sec-1 | EC50 (HRV-14): > 320 µM | CC50 (HI-HeLa cells): > 320 µM

CCOC(=O)/C=C/[C@H](CCC(N)=O)NC(=O)[C@H](Cc1ccc(COC)cc1)NC(=O)[C@H](CC(C)C)NC(=O)OCc1ccccc1 [Compound 140]
kobs/I [1]: 7,122 M-1 sec-1 | EC50 (HRV-14): 39 µM | CC50 (HI-HeLa cells): > 320 µM

CCOC(=O)/C=C/[C@H](CCC(N)=O)NC(=O)[C@H](CC(C)C)NC(=O)[C@H](CC(C)C)NC(=O)OCc1ccccc1 [Compound 141]
kobs/I [1]: 2,309 M-1 sec-1 | EC50 (HRV-14): 5.4 µM | CC50 (HI-HeLa cells): > 320 µM

CCOC(=O)/C=C/[C@H](CCC(N)=O)NC(=O)[C@H](CSC)NC(=O)[C@H](CC(C)C)NC(=O)OCc1ccccc1 [Compound 142]
kobs/I [1]: 2,929 M-1 sec-1 | EC50 (HRV-14): 8.9 µM | CC50 (HI-HeLa cells): > 320 µM

CCOC(=O)/C=C/[C@H](CCC(N)=O)NC(=O)[C@H](CSCC)NC(=O)[C@H](CC(C)C)NC(=O)OCc1ccccc1 [Compound 143]
kobs/I [1]: 2,963 M-1 sec-1 | EC50 (HRV-14): 10 µM | CC50 (HI-HeLa cells): > 320 µM

CC(C)C[C@H](NC(=O)OCc1ccccc1)C(=O)N[C@@H](Cc1ccccc1)C(=O)N[C@H](/C=C/c1ccno1)CCC(N)=O [Compound 150]
kobs/I [1]: 573 M⁻¹ s⁻¹ | EC50 (HRV-14): > 320 µM | CC50 (HI-HeLa cells; [2]): > 320 µM

CC(=O)N1CC/C(=C\[C@H](CCC(N)=O)NC(=O)[C@H](Cc2ccccc2)NC(=O)[C@H](CC(C)C)NC(=O)OCc2ccccc2)C1=O [Compound 164]
kobs/I [1]: 155,500 M-1 sec-1 | EC50 (HRV-14): 0.71 µM | CC50 (HI-HeLa cells): > 100 µM

CCOC(=O)/C(C)=C/[C@H](CCC(N)=O)NC(=O)[C@H](Cc1ccccc1)NC(=O)[C@@H](NC(=O)SCC)C(C)(C)C [Compound 168, Ethyl-2-Methyl-3-[Ethylthiocarbonyl-L-α-(t-Butyl-Gly)-L-Phe-L-Gln]-E-Propenoate]
kobs/I [1]: 37,800 M-1 sec-1 | EC50 (HRV-14): 0.32 µM | CC50 (HI-HeLa cells): > 100 µM

CCOC(=O)/C(C)=C/[C@H](CCC(N)=O)NC(=O)[C@H](Cc1ccc(C)cc1)NC(=O)[C@@H](NC(=O)SC1CCCC1)C(C)(C)C [Compound 175, Ethyl-2-Methyl-3-[Cyclopentylthiocarbonyl-L-α-(t-Butyl-Gly)-L-(4-Me-Phe)-L-Gln]-E-Propenoate]
kobs/I [1]: 124,000 M-1 sec-1 | EC50 (HRV-14): 0.18 µM | CC50 (HI-HeLa cells; [2]): > 100 µM

CCOC(=O)/C=C/[C@H](CCC(N)=O)NC(=O)[C@H](Cc1ccc(F)cc1)NC(=O)[C@@H](NC(=O)SC1CCCC1)C(C)(C)C [Compound 176, Ethyl-3-[Cyclopentylthiocarbonyl-L-α-(t-Butyl-Gly)-L-(4-F-Phe)-L-Gln]-E-Propenoate]
Ki ([1]; 10 minute preincubation, substrate start, read-out: INHIB (Ki)): 0.48 µM | kobs/I [1]: 240,000 M-1 sec-1 | EC50 (HRV-14): 0.14 µM | CC50 (HI-HeLa cells): > 100 µM
